Test results published in ChEMBL document CHEMBL1125509, “Synthesis and biological activity of CCK heptapeptide analogues. Effects of conformational constraints and standard modifications on receptor subtype selectivity, functional activity in vitro, and appetite suppression in vivo” (J Med Chem, 1992).
Activity calls are given as the source filed them. No cut-off for these calls is given here. *1 amine or outer side, *2 acyl side, *3 side chain or, on linkers, in order; H or OH if unused. Where a SMILES comes first, the peptide text is derived from it. [ ]: non-standard residue; d: D form. The star is where a group is joined. Hydrocinnamoyl(4-OSO3H) = O=C(CCc1ccc(OS(=O)(=O)O)cc1)*; X2 = O=C([C@@H]1CC(OS(=O)(=O)O)CN1[*:1])[*:2]; X5 = CCC[C@H]1CCN([*:1])[C@@H]1C(=O)[*:2]; X4 = O=C(c1ccc2cc(OS(=O)(=O)O)ccc2c1)*; X1 = CCCC1CCN([*:1])[C@@H]1C(=O)[*:2]; X6 = O=C(/C=C/c1ccc(OS(=O)(=O)O)cc1)*; X3 = O=C(/C(=C/c1ccccc1)N[*:1])[*:2]; NMeF = CN[C@@H](Cc1ccccc1)C(=O)O; NMeD = CN[C@@H](CC(=O)O)C(=O)O; NMeL = CN[C@@H](CC(C)C)C(=O)O; Nle = CCCC[C@H](N)C(=O)O; Ava = NCCCCC(=O)O

What was measured:
[1] = species on record: Cavia porcellus; experiment: (§1) Compound (10e-4 M) was evaluated in vitro for maximal stimulatory activity for PI hydrolysis relative to CCK-8 in guinea pig tissue; format: functional
[2] = test system: Rattus norvegicus; experiment: Compound was evaluated for % suppression (at 30 nmol/kg) of food intake in rat (360-420 min); format: functional
[3] = molecular target: Cholecystokinin receptor (Rattus norvegicus) (UniProt P30551+P30553); experiment: Evaluated for effective dose required for suppression of food intake in rat (0-60 min); format: functional
[4] = test system: Cholecystokinin receptor type A (Cavia porcellus); experiment: Ratio for CCK-A receptor of guinea pig pancreas (IC50(nM)) to CCK-B receptor of guinea pig cortex (IC50(nM))
[5] = test system: Rattus norvegicus; experiment: Compound was evaluated for % suppression (at 30 nmol/kg) of food intake in rat (360-420 min); not significant; format: functional, organism-based
[6] = molecular target: T1, Cholecystokinin receptor type A (Cavia porcellus, UniProt Q63931); experiment: Evaluated in vitro for its binding affinity towards cholecystokinin type A receptor of guinea pig pancreas
T1 sequence (Q63931 whole entry): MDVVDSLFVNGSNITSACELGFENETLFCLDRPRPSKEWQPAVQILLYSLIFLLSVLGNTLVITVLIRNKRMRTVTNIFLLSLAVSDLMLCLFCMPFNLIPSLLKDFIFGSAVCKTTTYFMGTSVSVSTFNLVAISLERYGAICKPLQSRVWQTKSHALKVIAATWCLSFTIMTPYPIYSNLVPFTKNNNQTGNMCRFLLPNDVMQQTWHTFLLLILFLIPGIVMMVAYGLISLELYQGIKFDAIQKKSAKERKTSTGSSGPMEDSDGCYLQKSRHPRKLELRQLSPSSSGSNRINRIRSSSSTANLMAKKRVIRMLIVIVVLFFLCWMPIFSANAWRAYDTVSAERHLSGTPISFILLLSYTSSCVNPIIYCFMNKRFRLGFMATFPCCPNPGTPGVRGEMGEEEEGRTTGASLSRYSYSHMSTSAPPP

[7] = test system: Cholecystokinin receptor type A (Cavia porcellus); experiment: Evaluated in vitro for maximal stimulatory activity for PI hydrolysis relative to CCK-8 in guinea pig tissue
[8] = molecular target: Cholecystokinin receptor type A (Cavia porcellus); experiment: Evaluated in vitro for maximal stimulatory activity for amylase release relative to CCK-8 in guinea pig tissue
[9] = molecular target: T2, Cholecystokinin receptor type A (Cavia porcellus) (UniProt Q63931); experiment: Ratio of binding affinities for CCK-A receptor of guinea pig pancreas (IC50(nM)) to CCK-B receptor of guinea pig cortex (IC50(nM)); format: tissue-based
T2 sequence (whole entry): T1 sequence (Q63931 whole entry)

[10] = species on record: Cavia porcellus; experiment: In vitro maximal stimulatory activity for amylase release relative to CCK-8 in guinea pig tissue at 5 nM; format: functional
[11] = as §1; format: functional
[12] = species on record: Cavia porcellus; experiment: In vitro maximal stimulatory activity for amylase release relative to CCK-8 in guinea pig tissue at 10 uM; format: functional
[13] = species on record: Cavia porcellus; experiment: In vitro maximal stimulatory activity for amylase release relative to CCK-8 in guinea pig tissue at 3 uM; format: functional
[14] = species on record: Cavia porcellus; experiment: In vitro maximal stimulatory activity for amylase release relative to CCK-8 in guinea pig tissue at 20 nM; format: functional

Compound	Ratio [4]	IC50 [6]	Max response [7]	EC50 [8]	other results
CCCC[C@H](NC(=O)CCc1ccc(OS(=O)(=O)O)cc1)C(=O)NCC(=O)N[C@@H](Cc1c[nH]c2ccccc12)C(=O)N[C@@H](CCCC)C(=O)N(C)[C@@H](CC(=O)O)C(=O)N[C@@H](Cc1ccccc1)C(N)=O ({Hydrocinnamoyl(4-OSO3H)}-[Nle]GW[Nle][NMeD]F-NH2)	–	–	–	–	Max response [1]: 100%; Supression [2]: 29%
CCCC[C@H](NC(=O)CCc1ccc(OS(=O)(=O)O)cc1)C(=O)NCC(=O)N[C@@H](Cc1c[nH]c2ccccc12)C(=O)N1CCC(CCC)[C@H]1C(=O)N[C@@H](CC(=O)O)C(=O)N(C)[C@@H](Cc1ccccc1)C(N)=O (stereo partly specified) ({Hydrocinnamoyl(4-OSO3H)}-[Nle]GW[X1]D[NMeF]-NH2)	14.3	–	–	–	Max response [1]: 83%; ED50 [3]: 0.00877 µmol/kg; Supression [5]: inactive
CCCC[C@H](NC(=O)CCc1ccc(OS(=O)(=O)O)cc1)C(=O)NCC(=O)N[C@@H](Cc1c[nH]c2ccccc12)C(=O)N[C@@H](CCCC)C(=O)N[C@@H](CC(=O)O)C(=O)N[C@@H](Cc1ccccc1)C(N)=O	–	0.77 nM	100%	0.99 nM	ED50 [3]: 0.00398 µmol/kg; Supression [5]: inactive; Ratio [9]: 1.53
CCCC[C@H](NC(=O)CCc1ccc(OS(=O)(=O)O)cc1)C(=O)NCC(=O)N[C@@H](Cc1c[nH]c2ccccc12)C(=O)N[C@@H](CCCC)C(=O)N[C@@H](CC(=O)O)C(=O)N(C)[C@@H](Cc1ccccc1)C(N)=O ({Hydrocinnamoyl(4-OSO3H)}-[Nle]GW[Nle]D[NMeF]-NH2)	0.1	–	–	–	Max response [1]: 94%; Supression [2]: 30%; ED50 [3]: 0.00245 µmol/kg
CCCC[C@H](NC(=O)CCc1ccc(OS(=O)(=O)O)cc1)C(=O)NCC(=O)N[C@@H](Cc1c[nH]c2ccccc12)C(=O)N(C)[C@@H](CC(C)C)C(=O)N[C@@H](CC(=O)O)C(=O)N[C@@H](Cc1ccccc1)C(N)=O ({Hydrocinnamoyl(4-OSO3H)}-[Nle]GW[NMeL]DF-NH2)	625	140 nM	80%	15 nM	–
CCC[C@H]1CCN(C(=O)[C@H](Cc2c[nH]c3ccccc23)NC(=O)CNC(=O)[C@@H]2CCCN2C(=O)CCc2ccc(OS(=O)(=O)O)cc2)[C@@H]1C(=O)N[C@@H](CC(=O)O)C(=O)N(C)[C@@H](Cc1ccccc1)C(N)=O ({Hydrocinnamoyl(4-OSO3H)}-PGW[X5]D[NMeF]-NH2) [listing 1 of 2 here]	–	–	–	–	Stimulation [10]: 83%
CCCC[C@H](NC(=O)CCc1ccc(OS(=O)(=O)O)cc1)C(=O)NCC(=O)N[C@@H](Cc1c[nH]c2ccccc12)C(=O)N[C@@H](CCCC)C(=O)N[C@@H](CC(=O)O)C(=O)N/C(=C\c1ccccc1)C(N)=O ({Hydrocinnamoyl(4-OSO3H)}-[Nle]GW[Nle]D[X3]-NH2)	0.62	–	–	–	Max response [11]: 69%
CCCC[C@H](NC(=O)[C@H](Cc1c[nH]c2ccccc12)NC(=O)CNC(=O)[C@H](CC(C)C)NC(=O)CCc1ccc(OS(=O)(=O)O)cc1)C(=O)N[C@@H](CC(=O)O)C(=O)N[C@@H](Cc1ccccc1)C(N)=O ({Hydrocinnamoyl(4-OSO3H)}-LGW[Nle]DF-NH2)	1.1	0.67 nM	120%	0.64 nM	–
CCC[C@H]1CCN(C(=O)[C@H](Cc2c[nH]c3ccccc23)NC(=O)CNC(=O)[C@@H]2CCCN2C(=O)CCc2ccc(OS(=O)(=O)O)cc2)[C@@H]1C(=O)N[C@@H](CC(=O)O)C(=O)N(C)[C@@H](Cc1ccccc1)C(N)=O ({Hydrocinnamoyl(4-OSO3H)}-PGW[X5]D[NMeF]-NH2) [listing 2 of 2 here]	–	7.3 nM	–	–	–
CCCC[C@H](NC(=O)[C@H](Cc1c[nH]c2ccccc12)NC(=O)CNC(=O)[C@@H](CCCC)NC(=O)CCc1ccc(OS(=O)(=O)O)cc1)C(=O)N[C@@H](CC(=O)O)C(=O)N[C@@H](Cc1ccccc1)C(N)=O	18.5	150 nM	52%	–	–
CCCC[C@H](NC(=O)[C@H](Cc1c[nH]c2ccccc12)NC(=O)CN1CC[C@H](NC(=O)CCc2ccc(OS(=O)(=O)O)cc2)C1=O)C(=O)N[C@@H](CC(=O)O)C(=O)N[C@@H](Cc1ccccc1)C(N)=O	9	130 nM	86%	71 nM	–
CC(C)C[C@H](NC(=O)[C@H](Cc1c[nH]c2ccccc12)NC(=O)CCCCNC(=O)CCc1ccc(OS(=O)(=O)O)cc1)C(=O)N[C@@H](CC(=O)O)C(=O)N[C@@H](Cc1ccccc1)C(N)=O ({Hydrocinnamoyl(4-OSO3H)-Ava}-WLDF-NH2)	143	150 nM	64%	140 nM	–
CCCC[C@H](NC(=O)c1ccc2cc(OS(=O)(=O)O)ccc2c1)C(=O)NCC(=O)N[C@@H](Cc1c[nH]c2ccccc12)C(=O)N[C@@H](CCCC)C(=O)N[C@@H](CC(=O)O)C(=O)N[C@@H](Cc1ccccc1)C(N)=O (X4-[Nle]GW[Nle]DF-NH2)	0.04	900 nM	16%	–	Stimulation [12]: 44%
CCCC[C@H](NC(=O)CCc1ccc(OS(=O)(=O)O)cc1)C(=O)NCC(=O)N[C@@H](Cc1c[nH]c2ccccc12)C(=O)N1CCC[C@H]1C(=O)N[C@@H](CC(=O)O)C(=O)N(C)[C@@H](Cc1ccccc1)C(N)=O ({Hydrocinnamoyl(4-OSO3H)}-[Nle]GWPD[NMeF]-NH2)	–	81 nM	–	–	Stimulation [13]: 98%
CCCC[C@H](NC(=O)CCc1ccc(OS(=O)(=O)O)cc1)C(=O)NCC(=O)N[C@@H](Cc1c[nH]c2ccccc12)C(=O)N[C@@H](CCCC)C(=O)N1CC(OS(=O)(=O)O)C[C@H]1C(=O)N[C@@H](Cc1ccccc1)C(N)=O (stereo partly specified) ({Hydrocinnamoyl(4-OSO3H)}-[Nle]GW[Nle][X2]F-NH2)	0.03	–	–	–	Max response [1]: 82%; ED50 [3]: > 1 µmol/kg; Supression [5]: inactive
CCCC[C@H](NC(=O)/C=C/c1ccc(OS(=O)(=O)O)cc1)C(=O)NCC(=O)N[C@@H](Cc1c[nH]c2ccccc12)C(=O)N[C@@H](CCCC)C(=O)N[C@@H](CC(=O)O)C(=O)N[C@@H](Cc1ccccc1)C(N)=O (X6-[Nle]GW[Nle]DF-NH2)	–	23 nM	–	–	Stimulation [14]: 105%
